According to patent US5981592A, “Method and composition for treating cystic fibrosis” (priority 1998, dated 1999):

Experiments:
gastric mucosa = details: in vivo; cited from earlier work
colon cancer [1] = details: cited from earlier work; for prevention of cancer of the large bowel and rectum: causal relationship with use identified by the reference
[2] = system: white cell count in the blood; details: in vivo; cited from earlier work
[3] = system: cystic fibrosis lung disease; details: cited from earlier work
colon cancer [4] = details: cited from earlier work; for survival among colon cancer patients: 5-fluorouracil alone or with levamisole
[5] = system: epithelial cells of the distal colon (crypts); assay: Labelling Index (LI) of proliferating crypt cells in distal colon, BrD-U staining; format: in vivo, Female Sprague-Dewley rats; details: rats, 30 days; for LI (Labelling Index): 6.3 mg/Kg/day, distal colon, control 12.62, P<0.05
Text: The term "effective to elicit a chemoprotective effect" was used herein means that abnormal cell proliferation is reduced. A method of measuring cell proliferation in animals is the Labelling Index (LI). Epithelial cells of the distal colon are stained using a histologic biomarker of proliferating cells. Microscopic examination allows for quantification of the proportion of proliferating cells in the crypts. A high proportion of proliferating cells or LI, particularly in the upper portion of the crypts, is an indicator of abnormal cell proliferation. A reduction in the LI of at least 10 to 50%, preferably at least 30% is associated with the reduction of abnormal cell proliferation. Of course, the particular R-NSAID used must be enantiomerically stable in the animal species being tested.
(§1) A study was performed to compare the R- and S-isomers of flurbiprofen with regard to their effect on the Labelling Index (LI) and duodenal ulceration in contrast to the S-isomer.
(§2) Female Sprague-Dewley rats were randomized to 4 groups (N=10) receiving 6.3 mg/Kg/day R-flurbiprofen; 6.3 mg/Kg/day S-flurbiprofen; 12.5 mg/Kg/day racemic flurbiprofen; or vehicle control. Fasted rats were sacrificed after 30 days. Small bowel ulcer score was recorded in each group.
The LI is calculated using a histologic biomarker of proliferating cells, a monoclonal antibody to Bromo-deoxyuridine (BrD-U). Intestinal crypts are examined microscopically in longitudinal sections such that proliferating cells are identified and quantified as a proportion of total crypt cells. An LI was determined for each rat using BrD-U staining to identify the proportion of mitotic cells in the crypt of Leiberkuhn. Twelve well-oriented crypts (distal colon) were examined in each rat.

small bowel = system: small bowel; parameters: species or system Female Sprague-Dewley rats; details: rat, in vivo
Procedure: The term "with reduced gastrointestinal toxicity" as used herein means that the administration of the particular R-NSAID is less ulcerogenic to the gastrointestinal tract of the human or other mammal than the corresponding racemate or S-NSAID. One measure of ulcerogenic activity is the small bowel ulcer score. A rat is treated daily through oral administration of the R-NSAID for 30 days. At the end of the 30 days, the rat is sacrificed and the intestines removed. Lesions of appreciable size in the mucosa are measured. A cumulative score equaling the sum of the diameters of the ulcers measured are reported as the ulcer score. An ulcer score essentially equal to that of a control rat, or a reduction of the ulcer score of at least 50 to 90%, preferably at least 80%, as compared to the corresponding S-NSAID or racemate, is considered a reduction in gastrointestinal toxicity.
as §1, §2

neutrophil traffic = assay: effect on neutrophil traffic in the normal rat; format: in vivo; details: for neutrophil adhesiveness and extravasation: post-capillary venules and surrounding tissue
neutrophils = details: high doses; stated as believed; cited from earlier work

Compound: COc1ccc2c(c1)c(CC(=O)O)c(C)n2C(=O)c1ccc(Cl)cc1 [indomethacin]
- damage and irritation of the gastric mucosa (gastric mucosa): cause damage and irritation of the gastric mucosa
- prevention of cancer of the large bowel and rectum (colon cancer [1]): prevention of cancer of the large bowel and rectum
- leukopenia/agranulocytosis syndrome [2]: leukopenia/agranulocytosis syndrome has been described

Compound: CC(=O)Oc1ccccc1C(=O)O [aspirin]
- damage and irritation of the gastric mucosa (gastric mucosa): cause damage and irritation of the gastric mucosa
- protection against colon cancer (colon cancer [1]; epidemiologic survey): confer protection against colon cancer

Compound: CC(C)Cc1ccc([C@H](C)C(=O)O)cc1 [S(+) ibuprofen]
- gastrointestinal side effects ([3]; human, in vivo): severely limit the chronic use of this therapy

Compound: CN1C(C(=O)Nc2ccccn2)=C(O)c2ccccc2S1(=O)=O [peroxicam]
- prevention of cancer of the large bowel and rectum (colon cancer [1]): prevention of cancer of the large bowel and rectum

Compound: c1ccc([C@H]2CN3CCSC3=N2)cc1 [levamisole]
- survival among colon cancer patients (colon cancer [4]): improved survival rate
- T-cell count / immune system (colon cancer [4]; human, in vivo): stimulate the immune system and increase T-cell count

Compound: C[C@@H](C(=O)O)c1ccc(-c2ccccc2)c(F)c1 [R-flurbiprofen]
- cell proliferation in the distal colon, in words [5]: suppresses cell proliferation in the distal colon
- LI (Labelling Index) [5]: 8.71
- ulcerogenicity, in words (small bowel): much less ulcerogenic than its S-enantiomer
- effect on neutrophil traffic relative to the S-enantiomer (neutrophil traffic): as effective as the S-enantiomer
- neutrophil adhesiveness and extravasation (neutrophil traffic): produce neutrophil adhesiveness in the post-capillary venules and extravasation of neutrophils into the surrounding tissue

Compound: C[C@H](C(=O)O)c1ccc(-c2ccccc2)c(F)c1 [S-flurbiprofen]
- LI (Labelling Index) [5]: 9.09
- neutrophil adhesiveness and extravasation (neutrophil traffic): produce neutrophil adhesiveness in the post-capillary venules and extravasation of neutrophils into the surrounding tissue

Compound: CC(C)Cc1ccc(C(C)C(=O)O)cc1 (racemic) [racemic ibuprofen]
- progression of the lung disease ([3]; high doses, four-year period, cystic fibrosis patients): slows progression of the lung disease
- side effects at high doses ([3]; human, in vivo): conjunctivitis and epistaxis
- leukopenia/agranulocytosis syndrome [2]: leukopenia/agranulocytosis syndrome has been described
- influx of neutrophils to the alveolar crevices (neutrophils): inhibits the influx of neutrophils to the alveolar crevices

Compound: CC(C(=O)O)c1ccc(-c2ccccc2)c(F)c1 (racemic) [racemic flurbiprofen]
- LI, result in words ([5]; equal-molar doses of both enantiomers (racemic 12.5 mg/Kg/day), relative to R- and S-flurbiprofen groups): further reduced

Compound: CC(C(=O)O)c1cccc(C(=O)c2ccccc2)c1 (stereo not drawn) [ketoprofen]
- leukopenia/agranulocytosis syndrome [2]: leukopenia/agranulocytosis syndrome has been described

Compound: O=c1[nH]cc(F)c(=O)[nH]1 [5-fluorouracil]
- survival among colon cancer patients (colon cancer [4]): No improvement in survival

Compound: CC1=C(CC(=O)O)c2cc(F)ccc2/C1=C\c1ccc([S+](C)[O-])cc1 (stereo not drawn) [sulindac]
- prevention of cancer of the large bowel and rectum (colon cancer [1]): prevention of cancer of the large bowel and rectum
